# Results as given in ChEMBL document CHEMBL2073748, “Na(+)-dependent carnitine transport by organic cation transporter (OCTN2): its pharmacological and toxicological relevance” (J Pharmacol Exp Ther, 1999).
# Experiments:
# [1] = target: T1, Organic cation/carnitine transporter 2 (Homo sapiens, UniProt O76082); test: TP_TRANSPORTER: inhibition of Carnitine uptake (Carnitine: 0.010? uM, Cephaloglycin: 500 uM) in OCTN2-expressing HEK293 cells; format: functional, cell-based; details: hek293, 500 µM
# T1 sequence (O76082 whole entry): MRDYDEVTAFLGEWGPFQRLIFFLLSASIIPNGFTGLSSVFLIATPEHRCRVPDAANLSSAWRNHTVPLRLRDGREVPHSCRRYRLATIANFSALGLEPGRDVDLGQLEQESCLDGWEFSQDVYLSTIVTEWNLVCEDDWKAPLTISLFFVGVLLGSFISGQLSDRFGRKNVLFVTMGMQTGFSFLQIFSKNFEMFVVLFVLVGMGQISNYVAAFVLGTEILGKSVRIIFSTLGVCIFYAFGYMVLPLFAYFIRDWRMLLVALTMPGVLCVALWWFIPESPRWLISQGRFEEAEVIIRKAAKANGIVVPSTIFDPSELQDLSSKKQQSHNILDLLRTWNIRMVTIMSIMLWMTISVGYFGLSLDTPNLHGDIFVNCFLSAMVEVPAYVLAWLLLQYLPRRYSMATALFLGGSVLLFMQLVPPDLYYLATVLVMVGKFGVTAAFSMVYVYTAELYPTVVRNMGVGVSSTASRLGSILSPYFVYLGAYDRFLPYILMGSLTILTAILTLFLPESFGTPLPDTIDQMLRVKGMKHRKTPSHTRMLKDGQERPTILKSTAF
# [2] = target: T2, OCTN2 (organic cation/carnitine transporter 2) (Homo sapiens, UniProt O76082); test: TP_TRANSPORTER: inhibition of Carnitine uptake (Carnitine: 0.010? uM, Probenecid: 500 uM) in OCTN2-expressing HEK293 cells; format: functional, cell-based; set-up: scale not given: the % may be the effect or the level left; details: HEK293 cells that express OCTN2, probe Carnitine, read-out: Activity
# T2 sequence (O76082 whole entry): T1 sequence (O76082 whole entry)
# [3] = target: T1, Organic cation/carnitine transporter 2; test: TP_TRANSPORTER: inhibition of Carnitine uptake (Carnitine: 0.010? uM, Arginine: 500 uM) in OCTN2-expressing HEK293 cells; format: functional, cell-based; details: hek293, 500 µM
# [4] = target: T2, OCTN2 (organic cation/carnitine transporter 2); test: TP_TRANSPORTER: inhibition of Carnitine uptake (Carnitine: 0.010? uM, Trimethyllysine: 500 uM) in OCTN2-expressing HEK293 cells; format: functional, cell-based; set-up: scale not given: the % may be the effect or the level left; details: HEK293 cells that express OCTN2, probe Carnitine, read-out: Activity
# [5] = target: T2, OCTN2 (organic cation/carnitine transporter 2); test: in vitro; details: HEK293 cells that express OCTN2, probe Carnitine
# Description: TP_TRANSPORTER: inhibition of Carnitine uptake (Carnitine: 0.010? uM, Nicotine: 500 uM) in OCTN2-expressing HEK293 cells
# [6] = target: T2, OCTN2 (organic cation/carnitine transporter 2); test: TP_TRANSPORTER: inhibition of Carnitine uptake (Carnitine: 0.010? uM, Procainamide: 500 uM) in OCTN2-expressing HEK293 cells; format: functional, cell-based; set-up: scale not given: the % may be the effect or the level left; details: HEK293 cells that express OCTN2, probe Carnitine, read-out: Activity
# [7] = target: T1, Organic cation/carnitine transporter 2; test: TP_TRANSPORTER: inhibition of Carnitine uptake (Carnitine: 0.010? uM, Carnosine: 500 uM) in OCTN2-expressing HEK293 cells; format: functional, cell-based; details: hek293, 500 µM
# [8] = target: T1, Organic cation/carnitine transporter 2; test: TP_TRANSPORTER: inhibition of Carnitine uptake (Carnitine: 0.010? uM, AZT: 500 uM) in OCTN2-expressing HEK293 cells; format: functional, cell-based; details: hek293, 500 µM
# [9] = target: T1, Organic cation/carnitine transporter 2; test: TP_TRANSPORTER: inhibition of Carnitine uptake (Carnitine: 0.010? uM, Creatinine: 500 uM) in OCTN2-expressing HEK293 cells; format: functional, cell-based; details: hek293, 500 µM
# [10] = target: T1, Organic cation/carnitine transporter 2; test: TP_TRANSPORTER: inhibition of Carnitine uptake (Carnitine: 0.010? uM, Furosemide: 500 uM) in OCTN2-expressing HEK293 cells; format: functional, cell-based; details: hek293, 500 µM
# [11] = target: T1, Organic cation/carnitine transporter 2; test: TP_TRANSPORTER: inhibition of Carnitine uptake (Carnitine: 0.010? uM, Creatine: 500 uM) in OCTN2-expressing HEK293 cells; format: functional, cell-based; details: hek293, 500 µM
# [12] = target: T2, OCTN2 (organic cation/carnitine transporter 2); test: in vitro; details: HEK293 cells that express OCTN2, probe Carnitine; remark: listed apart in the source
# Description: TP_TRANSPORTER: inhibition of Carnitine uptake (Carnitine: 0.010? uM, Clonidine: 500 uM) in OCTN2-expressing HEK293 cells
# [13] = target: T2, OCTN2 (organic cation/carnitine transporter 2); test: TP_TRANSPORTER: inhibition of Carnitine uptake (Carnitine: 0.010? uM, Aldosterone: 500 uM) in OCTN2-expressing HEK293 cells; format: functional, cell-based; set-up: scale not given: the % may be the effect or the level left; details: HEK293 cells that express OCTN2, probe Carnitine, read-out: Activity
# [14] = target: T2, OCTN2 (organic cation/carnitine transporter 2); test: TP_TRANSPORTER: inhibition of Carnitine uptake (Carnitine: 0.010? uM, Valproic acid: 500 uM) in OCTN2-expressing HEK293 cells; format: functional, cell-based; set-up: scale not given: the % may be the effect or the level left; details: HEK293 cells that express OCTN2, probe Carnitine, read-out: Activity
# [15] = target: T1, Organic cation/carnitine transporter 2; test: TP_TRANSPORTER: uptake in OCTN2-expressing HEK293 cells; format: functional, cell-based
# [16] = target: T2, OCTN2 (organic cation/carnitine transporter 2); test: TP_TRANSPORTER: inhibition of Carnitine uptake (Carnitine: 0.010? uM, Emetine: 500 uM) in OCTN2-expressing HEK293 cells; format: functional, cell-based; set-up: scale not given: the % may be the effect or the level left; details: HEK293 cells that express OCTN2, probe Carnitine, read-out: Activity
# [17] = target: T1, Organic cation/carnitine transporter 2; test: TP_TRANSPORTER: inhibition of Carnitine uptake (Carnitine: 0.010? uM, Cephalotin: 500 uM) in OCTN2-expressing HEK293 cells; format: functional, cell-based; details: hek293, 500 µM
structure (smiles),measurement,setting,value
CC(=O)OCC1=C(C(=O)O)N2C(=O)[C@@H](NC(=O)[C@H](N)c3ccccc3)[C@H]2SC1 [CEPHALOGLYCIN],Activity,[1],is not an inhibitor [-]
CCCN(CCC)S(=O)(=O)c1ccc(C(=O)O)cc1 [PROBENECID],activity at 500 µM,[2],77.4%
N=C(N)NCCC[C@H](N)C(=O)O [ARGININE],Activity,[3],is not an inhibitor [-]
C[N+](C)(C)CCCC[C@H](N)C(=O)O [TRIMETHYLLYSINE],activity at 500 µM,[4],69%
CN1CCC[C@H]1c1cccnc1 [NICOTINE],activity at 500 µM,[5],82.6%
CCN(CC)CCNC(=O)c1ccc(N)cc1 [PROCAINAMIDE],activity at 500 µM,[6],65.8%
NCCC(=O)N[C@@H](Cc1cnc[nH]1)C(=O)O [CARNOSINE],Activity,[7],is not an inhibitor [-]
Cc1cn([C@H]2C[C@H](N=[N+]=[N-])[C@@H](CO)O2)c(=O)[nH]c1=O [ZIDOVUDINE],Activity,[8],is not an inhibitor [-]
CN1CC(=O)NC1=N [CREATININE],Activity,[9],is not an inhibitor [-]
NS(=O)(=O)c1cc(C(=O)O)c(NCc2ccco2)cc1Cl [FUROSEMIDE],Activity,[10],is not an inhibitor [-]
CN(CC(=O)O)C(=N)N [CREATINE],Activity,[11],is not an inhibitor [-]
Clc1cccc(Cl)c1N=C1NCCN1 [CLONIDINE],activity at 500 µM,[12],67.6%
C[C@]12CCC(=O)C=C1CC[C@@H]1[C@@H]2[C@@H](O)C[C@]2(C=O)[C@@H](C(=O)CO)CC[C@@H]12 [ALDOSTERONE],activity at 500 µM,[13],37.1%
CCCC(CCC)C(=O)O [VALPROIC ACID],activity at 500 µM,[14],82.3%
same,Activity,[15],substrate [+]
CC[C@H]1CN2CCc3cc(OC)c(OC)cc3[C@@H]2C[C@@H]1C[C@H]1NCCc2cc(OC)c(OC)cc21 [EMETINE],activity at 500 µM,[16],16.6%
CC(=O)OCC1=C(C(=O)O)N2C(=O)[C@@H](NC(=O)Cc3cccs3)[C@H]2SC1 [CEPHALOTHIN],Activity,[17],is not an inhibitor [-]
